Consider one molecule from BindingDB's records for patent US10508104 (Bristol Myers Squibb, 2019).

For orientation: EC50 means the concentration that produces a half-maximal response. Low readings indicate greater potency, high ones weaker potency.

Molecules are shown by their SMILES.

This assay addresses T1, Apelin receptor (Homo sapiens, UniProt P35414).
T1 sequence (P35414 whole entry): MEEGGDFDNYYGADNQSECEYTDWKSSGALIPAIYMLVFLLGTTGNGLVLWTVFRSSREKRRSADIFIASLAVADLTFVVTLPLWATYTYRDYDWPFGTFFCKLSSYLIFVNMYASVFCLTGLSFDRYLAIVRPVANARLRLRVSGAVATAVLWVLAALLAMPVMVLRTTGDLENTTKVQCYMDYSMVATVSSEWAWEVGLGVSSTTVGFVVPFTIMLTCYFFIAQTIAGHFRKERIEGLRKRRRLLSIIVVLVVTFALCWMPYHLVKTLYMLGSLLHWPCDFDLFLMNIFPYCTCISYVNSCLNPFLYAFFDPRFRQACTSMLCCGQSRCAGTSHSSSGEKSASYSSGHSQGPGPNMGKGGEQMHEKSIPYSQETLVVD
The assay is described as follows: Intracellular cAMP Accumulation Assay. On the procedure: HEK293 cells stably expressing human APJ receptor were used to assess the activity of compounds. Cultured cells were detached and resuspended in the cAMP Homogeneous Time-Resolved Fluorescence (HTRF) assay buffer (Cisbio cat; #62AM4PEJ). […] Serial dilutions of a compound together with assay buffer containing […] and 2 μM forskolin were added to each well containing 5,000 cells and incubated for 30 minutes at room temperature. Subsequently, cAMP D2 reagent was added in the lysis buffer followed by the EuK antibody (Cisbio; cat #62AM4PEJ) and incubated for 60 min. The fluorescence emission ratio was measured using fluorometer. The intracellular cAMP concentrations (compound-stimulated inhibition of forskolin-mediated cAMP production) were calculated by extrapolation from a standard curve using known cAMP concentrations. The EC50 values were obtained by fitting the data to a sigmoidal concentration-response curve with variable slope.

Turning to `CCCCC1NC(=O)C(S(=O)(=O)c2ccc(-c3ccnc(F)c3C)cc2)=C(O)N1[C@@H](CC)c1cccc(OC)c1` (stereo partly specified) [US10508104, Example 169], the EC50 result was “in the range around 5 nM”.
